EC50 and Emax data for 41 compounds are collected here from patent publication US8802700B2 (Vertex Pharmaceuticals Incorporated, priority 2010, dated 2014).

SMILES strings stand for the structures. pEC50: −log10 of the molar value.

The target of one assay is T1, ΔF508-CFTR (Homo sapiens, UniProt P13569, DEL508-508).
T1 construct: expressed in transfected cells
T1 sequence (P13569 with tags, fused parts or gaps DEL508-508): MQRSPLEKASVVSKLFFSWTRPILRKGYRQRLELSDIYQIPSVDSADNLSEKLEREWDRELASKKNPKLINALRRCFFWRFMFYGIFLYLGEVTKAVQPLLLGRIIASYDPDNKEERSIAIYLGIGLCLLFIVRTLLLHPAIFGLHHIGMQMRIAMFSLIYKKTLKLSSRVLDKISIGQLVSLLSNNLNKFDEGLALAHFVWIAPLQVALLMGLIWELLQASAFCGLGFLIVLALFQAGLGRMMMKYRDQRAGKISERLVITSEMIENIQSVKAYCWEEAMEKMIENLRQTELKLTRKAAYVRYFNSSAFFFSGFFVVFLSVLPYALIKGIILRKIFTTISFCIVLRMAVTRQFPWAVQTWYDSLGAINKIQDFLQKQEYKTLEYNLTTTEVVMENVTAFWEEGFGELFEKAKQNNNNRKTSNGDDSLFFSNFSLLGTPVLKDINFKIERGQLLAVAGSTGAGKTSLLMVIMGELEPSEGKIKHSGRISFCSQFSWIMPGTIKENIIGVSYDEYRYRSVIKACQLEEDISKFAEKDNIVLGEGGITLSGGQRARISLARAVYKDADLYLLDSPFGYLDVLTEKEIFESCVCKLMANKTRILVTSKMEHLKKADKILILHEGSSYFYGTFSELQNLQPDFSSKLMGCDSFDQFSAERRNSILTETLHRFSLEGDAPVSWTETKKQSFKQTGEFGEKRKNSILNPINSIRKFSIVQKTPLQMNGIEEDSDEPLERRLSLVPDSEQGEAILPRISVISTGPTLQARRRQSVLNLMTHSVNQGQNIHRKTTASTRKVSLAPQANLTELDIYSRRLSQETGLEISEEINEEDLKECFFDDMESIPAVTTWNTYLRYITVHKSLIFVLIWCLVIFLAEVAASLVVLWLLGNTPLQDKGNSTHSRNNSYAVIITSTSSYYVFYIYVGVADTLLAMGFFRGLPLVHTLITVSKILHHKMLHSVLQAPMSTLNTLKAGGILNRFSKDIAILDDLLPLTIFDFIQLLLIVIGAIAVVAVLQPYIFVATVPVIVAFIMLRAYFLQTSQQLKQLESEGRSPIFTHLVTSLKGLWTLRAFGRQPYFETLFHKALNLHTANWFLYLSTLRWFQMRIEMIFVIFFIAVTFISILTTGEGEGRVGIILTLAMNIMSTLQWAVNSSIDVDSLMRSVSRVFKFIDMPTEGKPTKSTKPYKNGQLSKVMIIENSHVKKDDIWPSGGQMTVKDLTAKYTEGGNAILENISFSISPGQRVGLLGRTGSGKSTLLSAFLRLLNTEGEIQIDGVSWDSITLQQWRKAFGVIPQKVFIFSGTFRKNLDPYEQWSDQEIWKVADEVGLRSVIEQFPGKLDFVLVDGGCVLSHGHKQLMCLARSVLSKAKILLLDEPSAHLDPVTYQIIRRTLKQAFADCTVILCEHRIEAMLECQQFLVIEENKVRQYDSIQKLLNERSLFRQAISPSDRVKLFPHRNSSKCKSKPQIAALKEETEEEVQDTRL
Kind of assay: Membrane potential optical assay (FRET voltage-sensor dyes, VIPR), identification of potentiator compounds. The assay is classed as cell-based. Conditions: Table 3; assay not given. The method in brief: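 Potentiator screen measured membrane potential via FRET between CC2-DMPE donor and DiSBAC2(3), read on VIPR II. Compound went in with the first addition of chloride-free gluconate bath; cells were ΔF508-CFTR-expressing NIH3T3 mouse fibroblasts, temperature-corrected at 27 °C for 24 h.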
Usually pEC50 stands for −log10 of the EC50, conventionally taken in molar units. For `O=C(Nc1ccccc1-c1ccncc1)c1c[nH]c2ccccc2c1=O` [Compound 70, 4-oxo-N-[2-(4-pyridyl)phenyl]-1H-quinoline-3-carboxamide], the pEC50 was 4.60 to 5.00.

In the case of `C[C@@H]1CCCN1c1ccc(NC(=O)c2c[nH]c3ccccc3c2=O)c(C(F)(F)F)c1` [Compound 572, (R)-N-(4-(2-methylpyrrolidin-1-yl)-2-(trifluoromethyl)phenyl)-4-oxo-1,4-dihydroquinoline-3-carboxamide], the pEC50 was over 5.00.

The same assay, now with this note: Table 3; assay not given; read-out: % Activity (% Efficacy, relative efficacy).
`CCOC(=O)c1c(NC(=O)c2c[nH]c3ccccc3c2=O)ccc2cc[nH]c12` [Compound 412, 6-[(4-oxo-1H-quinolin-3-yl)carbonylamino]-1H-indole-7-carboxylic acid ethyl ester]: the Emax lay in the range of 25 to 100%.

`CCOC(=O)Nc1cc(NC(=O)c2c[nH]c3ccccc3c2=O)ccc1C` [Compound 141, [2-methyl-5-[(4-oxo-1H-quinolin-3-yl)carbonylamino]phenyl]aminoformic acid ethyl ester]: the Emax fell in the range of 25 to 100%.

In the case of `COc1ccc2c(=O)c(C(=O)Nc3cc(O)c(C(C)(C)C)cc3C(C)(C)C)c[nH]c2c1` [Compound 583, N-(5-hydroxy-2,4-ditert-butyl-phenyl)-7-methoxy-4-oxo-1H-quinoline-3-carboxamide], the Emax fell in the range of 25 to 100%.

For the compound `O=C(Nc1ccccc1-c1ccncc1)c1c[nH]c2ccccc2c1=O` [Compound 70, 4-oxo-N-[2-(4-pyridyl)phenyl]-1H-quinoline-3-carboxamide], the Emax lay within 25 to 100%.

With `O=C(Nc1ccccc1-c1ccco1)c1c[nH]c2ccccc2c1=O` [Compound 115, N-[2-(2-furyl)phenyl]-4-oxo-1H-quinoline-3-carboxamide], the Emax was 25 to 100%.

Take `COC(=O)c1cc(NC(=O)c2c[nH]c3ccccc3c2=O)ccc1C(C)(C)C` [Compound 444, 5-[(4-oxo-1H-quinolin-3-yl)carbonylamino]-2-tert-butyl-benzoic acid methyl ester]: the Emax is 25 to 100%.

For `Cc1cc(C2CCCCC2)ccc1NC(=O)c1c[nH]c2ccccc2c1=O` [Compound 647, N-(4-cyclohexyl-2-methyl-phenyl)-4-oxo-1H-quinoline-3-carboxamide], the Emax was in the range of 25 to 100%.

Consider `Nc1cc(NC(=O)c2c[nH]c3ccccc3c2=O)ccc1Cl` [Compound 453, N-(3-amino-4-chloro-phenyl)-4-oxo-1H-quinoline-3-carboxamide], for which the Emax was 25 to 100%.

For the compound `N#CCc1ccc(NC(=O)c2c[nH]c3ccccc3c2=O)cc1` [Compound 110, N-[4-(cyanomethyl)phenyl]-4-oxo-1H-quinoline-3-carboxamide], the Emax was under 25%.

In the case of `O=C(Nc1ccccc1-c1ccc(F)c(Cl)c1)c1c[nH]c2ccccc2c1=O` [Compound 190, N-[2-(3-chloro-4-fluoro-phenyl)phenyl]-4-oxo-1H-quinoline-3-carboxamide], the Emax is 25 to 100%.

Consider `O=C(Nc1ccc(N2CC[C@@H](O)C2)cc1C(F)(F)F)c1c[nH]c2ccccc2c1=O` [Compound 705, (R)-N-(4-(3-hydroxypyrrolidin-1-yl)-2-(trifluoromethyl)phenyl)-4-oxo-1,4-dihydroquinoline-3-carboxamide], for which the Emax was 25 to 100%.

Take `C[C@@H]1CCCN1c1ccc(NC(=O)c2c[nH]c3ccccc3c2=O)c(C(F)(F)F)c1` [Compound 572, (R)-N-(4-(2-methylpyrrolidin-1-yl)-2-(trifluoromethyl)phenyl)-4-oxo-1,4-dihydroquinoline-3-carboxamide]: the Emax fell in the range of 25 to 100%.

With `O=C(Nc1ccccc1Cc1ccccc1)c1c[nH]c2ccccc2c1=O` [Compound 265, N-(2-benzylphenyl)-4-oxo-1H-quinoline-3-carboxamide], the Emax was in the range of 25 to 100%.

On to `Cc1cccc(NC(=O)c2c[nH]c3ccccc3c2=O)c1C#N` [Compound 201, N-(2-cyano-3-methyl-phenyl)-4-oxo-1H-quinoline-3-carboxamide], for which the Emax is under 25%.

Turning to `COc1ccc(Cl)cc1-c1ccccc1NC(=O)c1c[nH]c2ccccc2c1=O` [Compound 202, N-[2-(5-chloro-2-methoxy-phenyl)phenyl]-4-oxo-1H-quinoline-3-carboxamide], the Emax was 25 to 100%.

Take `O=C(Nc1cc(Cl)ccc1F)c1c[nH]c2ccccc2c1=O` [Compound 48, N-(5-chloro-2-fluoro-phenyl)-4-oxo-1H-quinoline-3-carboxamide]: the Emax lay in the range of 25 to 100%.

With `O=C(Nc1cc(O)c(C23CC4CC(CC(C4)C2)C3)cc1F)c1cnc2ccccc2c1O` [Compound 395, N-[4-(1-adamantyl)-2-fluoro-5-hydroxy-phenyl]-4-hydroxy-quinoline-3-carboxamide], the Emax was 25 to 100%.

Consider `Cc1cc(N2CCCC2)ccc1NC(=O)c1c[nH]c2ccccc2c1=O` [Compound 615, N-(2-methyl-4-pyrrolidin-1-yl-phenyl)-4-oxo-1H-quinoline-3-carboxamide], for which the Emax is over 100%.

On to `COc1nc2ccccc2c(OC)c1C(=O)Nc1ccccc1-c1ccccc1` [Compound 210, 2,4-dimethoxy-N-(2-phenylphenyl)-quinoline-3-carboxamide], for which the Emax fell in the range of 25 to 100%.

Consider `CC(C)n1cc(C(=O)Nc2ccccc2C(C)(C)C)c(=O)c2ccccc21` [Compound 473, 1-isopropyl-4-oxo-N-(2-tert-butylphenyl)-1H-quinoline-3-carboxamide], for which the Emax lay in the range of 25 to 100%.

On to `O=C(Nc1cccc(Oc2ccccc2)c1)c1c[nH]c2ccccc2c1=O` [Compound 87, 4-oxo-N-(3-phenoxyphenyl)-1H-quinoline-3-carboxamide], for which the Emax was 25 to 100%.

Take `COc1cc(N2CCCC2)ccc1NC(=O)c1c[nH]c2ccccc2c1=O` [Compound 675, N-(2-methoxy-4-pyrrolidin-1-yl-phenyl)-4-oxo-1H-quinoline-3-carboxamide]: the Emax fell in the range of 25 to 100%.

Consider `CC(=O)c1ccccc1NC(=O)c1c[nH]c2ccccc2c1=O` [Compound 365, N-(2-acetylphenyl)-4-oxo-1H-quinoline-3-carboxamide], for which the Emax lay in the range of 25 to 100%.

Consider `N#Cc1cc2ccc(NC(=O)c3c[nH]c4ccccc4c3=O)cc2[nH]1` [Compound 270, N-(2-cyano-1H-indol-6-yl)-4-oxo-1H-quinoline-3-carboxamide], for which the Emax lay within 25 to 100%.

As for `CC(C)(C)c1ccc(O)cc1NC(=O)c1c[nH]c2cccc(O)c2c1=O` [Compound 609, 5-hydroxy-N-(5-hydroxy-2-tert-butyl-phenyl)-4-oxo-1H-quinoline-3-carboxamide], the Emax was in the range of 25 to 100%.

With `CNc1cc(NC(=O)c2c[nH]c3ccccc3c2=O)ccc1C(C)(C)C` [Compound 484, N-(3-methylamino-4-tert-butyl-phenyl)-4-oxo-1H-quinoline-3-carboxamide], the Emax was 25 to 100%.

For the compound `O=C(Nc1ccc2ccccc2n1)c1c[nH]c2ccccc2c1=O` [Compound 19, 4-oxo-N-(2-quinolyl)-1H-quinoline-3-carboxamide], the Emax is under 25%.

For the compound `O=C(Nc1ccc(N2CCOCC2)cc1C(F)(F)F)c1c[nH]c2ccccc2c1=O` [Compound 598, N-[4-morpholino-2-(trifluoromethyl)phenyl]-4-oxo-1H-quinoline-3-carboxamide], the Emax was over 100%.

`CCCc1ccc(NC(=O)c2c[nH]c3ccccc3c2=O)cc1NC(=O)OC` [Compound 221, [5-[(4-oxo-1H-quinolin-3-yl)carbonylamino]-2-propyl-phenyl]aminoformic acid methyl ester]: the Emax was 25 to 100%.

With `Cc1ccc2c(=O)c(C(=O)Nc3ccc(N4CCC[C@@H]4C)cc3C(F)(F)F)c[nH]c2c1` [Compound 607, (S)-7-methyl-N-(4-(2-methylpyrrolidin-1-yl)-2-(trifluoromethyl)phenyl)-4-oxo-1,4-dihydroquinoline-3-carboxamide], the Emax lay in the range of 25 to 100%.

As for `O=C(Nc1cccc(S(=O)(=O)N2CCCC2)c1)c1c[nH]c2ccccc2c1=O` [Compound 24, 4-oxo-N-(3-pyrrolidin-1-ylsulfonylphenyl)-1H-quinoline-3-carboxamide], the Emax was under 25%.

Turning to `CC(=O)N1CC2(CC2)c2ccc(NC(=O)c3c[nH]c4ccccc4c3=O)cc21` [Compound 175, 4-Oxo-1,4-dihydro-quinoline-3-carboxylic acid N-(1′-Acetyl-1′,2′-dihydrospiro[cyclopropane-1,3′-3H-indol]-6′-yl)-amide], the Emax lay within 25 to 100%.

In the case of `O=C(Nc1ccc2c(c1)NCC21CC1)c1c[nH]c2ccccc2c1=O` [Compound 22, 4-Oxo-1,4-dihydro-quinoline-3-carboxylic acid N-(1′,2′-dihydrospiro[cyclopropane-1,3′-[3H]indol]-6′-yl)-amide], the Emax lay within 25 to 100%.

As for `Cc1ccc(NC(=O)c2c[nH]c3ccccc3c2=O)cc1` [Compound 31, 4-oxo-N-(p-tolyl)-1H-quinoline-3-carboxamide], the Emax was in the range of 25 to 100%.

Consider `COc1cccc(-c2ccccc2NC(=O)c2c[nH]c3ccccc3c2=O)c1F` [Compound 363, N-[2-(2-fluoro-3-methoxy-phenyl)phenyl]-4-oxo-1H-quinoline-3-carboxamide], for which the Emax is over 100%.

Consider `CC(C)c1c[nH]c2cc(NC(=O)c3c[nH]c4ccccc4c3=O)ccc12` [Compound 357, N-(3-isopropyl-1H-indol-6-yl)-4-oxo-1H-quinoline-3-carboxamide], for which the Emax lay in the range of 25 to 100%.

Take `CC(C)(C)c1cc2cc[nH]c2cc1NC(=O)c1c[nH]c2cc(C#N)ccc2c1=O` [Compound 558, 7-cyano-4-oxo-N-(5-tert-butyl-1H-indol-6-yl)-1H-quinoline-3-carboxamide]: the Emax lay in the range of 25 to 100%.

On to `O=C(Nc1ccc2nc[nH]c2c1)c1c[nH]c2ccccc2c1=O` [Compound 414, N-(3H-benzoimidazol-5-yl)-4-oxo-1H-quinoline-3-carboxamide], for which the Emax was under 25%.

Take `CCOc1ccccc1-c1ccc(N)cc1NC(=O)c1c[nH]c2ccccc2c1=O` [Compound 393, N-[5-amino-2-(2-ethoxyphenyl)-phenyl]-4-oxo-1H-quinoline-3-carboxamide]: the Emax lay in the range of 25 to 100%.

As to `O=C(Nc1cc(C(=O)O)c2cc[nH]c2c1)c1c[nH]c2ccccc2c1=O` [Compound 711, 6-[(4-oxo-1H-quinolin-3-yl)carbonylamino]-1H-indole-4-carboxylic acid], the Emax fell in the range of 25 to 100%.

As for `CC(C)c1ccc(-c2cc3cc[nH]c3cc2NC(=O)c2c[nH]c3ccccc3c2=O)cc1` [Compound 342, N-[5-(4-isopropylphenyl)-1H-indol-6-yl]-4-oxo-1H-quinoline-3-carboxamide], the Emax lay in the range of 25 to 100%.
